# Measurements from patent US20040241244A1, “Neuronal growth enhancement by prostaglandin compositions and methods” (NexMed (Holdings) Inc., priority 2003, published 2004).
# Where “and” joins values, the source holds several entries; their conditions need not be identical. Identical values can stand only once. Like-named read-outs stand apart in the source and are kept apart here.
# Legend:
# [1] = test system: dorsocaudal regions of rat major pelvic ganglia (DCR-MPG); assay: Neurite outgrowth in primary cultures of dorsocaudal regions of rat major pelvic ganglia; type: cell-based, Sprague-Dawley rats
# Experimental: The dorsocaudal regions of 24 major pelvic ganglia (DCR-MPG) were dissected from Sprague-Dawley rats. Each sample was placed on a reduced-growth factor Matrigel coated glasscover slide in a culture dish filled with serum-free medium. […] The ganglia cultures were incubated at 37° C. in a humidified atmosphere with 5% CO2. Digital photographs were taken of neurite growth after 96 hours.
# Growth Factor Reduced Matrigel (Passaniti, A., et al., Lab. Invest. 1992 67:518-528) was purchased from Becton Dickinson (Mountain View, Calif.). Cell culture grade PGE1 was purchased from Sigma Chemical. (St. Louis, Mo.). RPIM-1640 and other cell culture reagents were purchased from GIBCO Invitrogen Corp. (Grand Island, N.Y.).
# Male Sprague-Dawley rats, two-months old, were used in this study. All animal care, treatments, and procedures were approved by the institutional Committee on Animal Research. The rats were sacrificed by intraperitoneal injection of sodium pentobarbital (50 mg/kg) followed by bilateral thoracotomy and the removal of the dorsocaudal region of the major pelvic ganglia (DCR-MPG).
# Each rat supplied a pair of DCR-MPG; one was used as control and the contralateral ganglion was treated with PGE1. The DCR-MPG isolated from Sprague-Dawley rats were cultured attached to Matrigel-coated glass coverslips. The coverslips were used as the supporting platform to facilitate samples processing for histological staining and examination. Coverslips were coated as follows. Growth Factor Reduced Matrigel (Becton Dickinson, Mountain View, Calif.) was diluted 3-fold in serum-free RPMI-1640 in a 35-mm culture dish on ice. The diluted Matrigel was then spread onto cold sterilized glass coverslips using a sterilized glass slide as spreader. The coated coverslips were placed in 35-mm culture dishes and incubated at 37° C. for 1 hr to allow the Matrigel to solidify. Each freshly dissected DCR-MPG was rinsed in phosphate-buffered saline (PBS), cut into equal thirds, placed on top of Matrigel coated coverslips and covered by 50 μl cold Growth Factor Reduced Matrigel which had been kept in liquid form. After a 5-min incubation at 37° C. to allow the Matrigel to polymerize, 3 ml of serum-free RPMI 1640 medium supplemented with 1×penicillin-streptomycin-fungizone (Cell Culture Facility, University of California, San Francisco) was added. […] The ganglia cultures were maintained at 37° C. in a humidified atmosphere with 5% CO2.
# After 2 to 3 days of incubation, the ganglia and outgrowing neurites were stained for nicotinamide adenine dinucleotide phosphate (NADPH) diaphorase as an indication of nitric oxide synthase (NOS) expression. The culture medium was removed from each culture and replaced with a fixative solution of 2% formaldehyde, 0.002% picric acid in 0.1 M phosphate buffer, pH 8.0. After 20 min of fixation, the tissue was rinsed three times, 10 min each, with phosphate buffer, pH 8.0. The tissue was then incubated with 0.1 mM NADPH, 0.2 mM nitroblue tetrazolium, 0.2% Triton X-100 in buffer for approximately 30 min at room temperature with constant microscopic monitoring for color development. When a deep blue color was detected for NADPH-diaphorase positive nerves, the reaction was terminated by washing the tissues with buffer three times, 10 min each. The coverslips containing the ganglia were then mounted onto glass slides using buffered glycerin as mounting medium.
# Neurites were photographed using a professional DCS-420 digital camera (Eastman Kodak, Rochester, N.Y.) connected to an Olympus microscope and an Apple Macintosh PowerMac computer. All samples were photographed and the images were stored for later analysis. The digital images were analyzed using Chemilmager 4000 software (Alpha Innotech Corporation, San Leandro, Calif.) to determine the maximum length of the outgrowing neurites fibers.
# Statistical analysis was performed using computer software from Primer of Biostatistics, 3rd ed. (Glantz SA, McGraw-Hill, Inc. New York, 1992). […]
# [2] = test system: mouse neuroblastoma cells; assay: Neurite extension in neuroblastoma cells in culture (Prasad, 1972); type: cell-based; details: converted from micrograms/ml
# Description: “Neurite” is a broad term used to describe both axons and dendrites produced by a nerve cell; most commonly used to cover all cellular processes produced by neurons in culture (Kendrew, J., editor, The Encyclopedia of Molecular Biology, Blackwell Science Ltd., Oxford, 1994, page 709).
# [3] = test system: mouse neuroblastoma cells; details: cited from earlier work
# [4] = test system: patients after nerve sparing RRP; details: three months of intracavernous injections three times a week; patients completing treatment; cited from earlier work
# EP2 receptor = EP2 receptor (Mus musculus, UniProt Q62053); details: read-out: affinity for the EP2 receptor; cited from earlier work
# [5] = test system: cultured mouse dorsal root ganglion neurons; details: 20 micromolar, at 2 hours; cited from earlier work
# Chain of EP2 receptor (Q62053 whole entry): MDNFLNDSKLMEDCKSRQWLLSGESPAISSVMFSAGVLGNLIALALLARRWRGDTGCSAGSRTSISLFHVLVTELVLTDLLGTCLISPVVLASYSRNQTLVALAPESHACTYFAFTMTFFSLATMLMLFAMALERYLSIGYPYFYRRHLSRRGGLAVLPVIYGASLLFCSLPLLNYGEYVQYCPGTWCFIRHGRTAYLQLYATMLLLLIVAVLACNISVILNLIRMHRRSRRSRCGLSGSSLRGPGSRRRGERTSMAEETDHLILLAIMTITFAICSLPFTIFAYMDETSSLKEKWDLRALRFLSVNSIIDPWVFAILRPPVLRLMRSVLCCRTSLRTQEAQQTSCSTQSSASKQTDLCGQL
Compound,"Neurite Growth (Length of longest neurite), Mean ([1]; 1 μM PGE1, 96 hours culture) [μm]","Neurite Growth (Length of longest neurite), Mean ([1]; 10 μM PGE1, 96 hours culture)","Neurite Growth (Length of longest neurite), Mean ([1]; 20 μM PGE1, 96 hours culture) [μm]",fiber length induced ([1]; 30 μM PGE1) [µm],peak neurite growth (mean ± standard deviation) ([1]; 30 μM PGE1) [micrometers],"Neurite Growth (Length of longest neurite), Mean ([1]; 30 μM PGE1, 96 hours culture) [μm]","Neurite Growth (Length of longest neurite), Mean ([1]; 60 μM PGE1, 96 hours culture) [μm]","maximum neurite extension at high doses ([1]; 60 μM, 100 μM)","Neurite Growth (Length of longest neurite), Mean ([1]; 100 μM PGE1, 96 hours culture) [μm]","effect on neurite outgrowth of NADPH positive cells ([1]; primary cultures, 1-100 μM)","PGE1 concentration at which the maximum effect on neurite outgrowth was observed ([1]; tested at 1, 10, 20, 30, 60 or 100 μM) [µM]",optimum concentration for neurite extension [2],optimum concentration for neurite extension [3],optimum time of exposure [3] [days],patients reporting recovery of spontaneous erections sufficient for intercourse [4],Kd (EP2 receptor) [nM],neurite extension [5]
Prostaglandin E1 [PGE1],168.00,229.33±10.7 μm and 229.33 μm,244.00,250 ± 38.1,250±63,250.29,138.00,smaller maximum neurite extension,112.00,enhance neurite outgrowth,30,about 30 micromolar,about 10 micrograms/ml,3 to 5,8 of the 12,–,–
"CCCCC[C@H](O)/C=C/[C@H]1[C@H](O)CC(=O)[C@@H]1C/C=C\CCCC(=O)O [PGE2, Prostaglandin E2]",–,–,–,–,–,–,–,–,–,–,–,–,same optimum concentration,–,–,~10,significantly different from control
